Laboratory results from ChEMBL document CHEMBL1157539, “Thousands of chemical starting points for antimalarial lead identification” (Nature, 2010).

Tested on: Plasmodium falciparum
Test: GSK_TCMDC: Inhibition of Plasmodium falciparum 3D7 in whole erythrocytes, using parasite LDH activity as an index of growth.
Format: functional, organism-based
Settings: Plasmodium falciparum, 3D7

Compound	XC50
C=CCOc1ccccc1CNCC(O)c1cccc(C(F)(F)F)c1 (stereo unspecified)	845 nM
O=C(Cn1c(CCc2cccc(F)c2F)nc(=O)c2cccnc21)N(Cc1ccc(-c2ccc(C(F)(F)F)cc2)cc1)C1CCN(C2CCOCC2)CC1	828 nM
Cc1[nH]c(C)c(-c2ccc(Oc3cccc(C(F)(F)F)c3)cc2)c(=O)c1Br	7.69 nM
CN(CCN1CCC(c2c[nH]c3ccccc23)CC1)C(=O)OCCCCCNC(=O)/C=C/c1ccc(Cl)c(Cl)c1	678 nM
CC(C)CCC[C@@H]([C@@H](CC1CCCCC1)C(=O)N[C@@H](CCCCNC(=O)OCc1ccccc1)C(=O)Nc1nccs1)N(O)C=O	457 nM
CCn1c(C2CCN(CCC3CCN(C(=O)/C=C/c4ccc(Cl)c(Cl)c4)CC3)CC2)nc2ccccc21	1080 nM
CNC(=O)CC(=O)NCCc1ccc(Cl)cc1	811 nM
CN(C)C(CNc1ncnc2cc(Cl)ccc12)Cc1ccccc1 (stereo unspecified)	872 nM
CCCCCCCCc1nc(C)c(Br)c(O)c1Br	178 nM
COc1cccc(Nc2nccc(NCC(O)c3cccc(C(F)(F)F)c3)n2)c1 (stereo unspecified)	702 nM
CC(C)n1cc2c(ccc3nc(N)nc(N)c32)n1	36.9 nM
CCN(C1CCCCC1)S(=O)(=O)c1ccc(OC)c(N2CCN(C(=O)C(Cl)(Cl)Cl)CC2)c1	635 nM
c1ccc2nc(NCCCCCCCCNc3ccc4ccccc4n3)ccc2c1	272 nM
CC(CN1CCN(C)CC1)C(=O)Nc1ccc(-c2ccc(-c3nc4ccccc4[nH]3)cc2)cc1 (stereo unspecified)	954 nM
COc1ccc(CC(=O)Nc2ccc(-c3cccc(-c4nc5cccc(C)c5[nH]4)c3)cc2)cc1O	452 nM
Cc1cccc(NC(=O)N(Cc2cc3cc(C)cc(C)c3[nH]c2=O)C2CC2)c1	336 nM
Cc1ccc(NC(=O)c2ccc(Cl)cc2)cc1-c1ccc(C(=O)Nc2ccncc2)cc1	779 nM
CNC(=O)C(C)N(c1ccc(Cl)cc1)c1nc(C(C)(C)C)cs1 (stereo unspecified)	741 nM
c1ccc(Oc2ccc(Nc3nncc4ccccc34)cc2)cc1	686 nM
CC1(C)C(N(O)C(=O)Nc2ccc(Cl)c(Cl)c2)N(c2ccc(Cl)c(Cl)c2)C(=O)N1CCc1ccccc1 (stereo unspecified)	823 nM
O=C(Cc1c[nH]cn1)Nc1cccc(-c2cccc(-c3nc4cc(C(F)(F)F)ccc4[nH]3)c2)c1	225 nM
COc1ccc2ccccc2c1CCCCN1CCN(CC(c2ccc(F)cc2)N2CCN(C(C)C)CC2)CC1 (stereo unspecified)	809 nM
O=C(Cc1ccccc1)NC(CCN1CCC(O)(c2cccc(C(F)(F)F)c2)CC1)c1ccc(Cl)c(Cl)c1 (stereo unspecified)	855 nM
c1ccc(COc2ccc(Nc3ncnc4ccc(-c5ccc(CN6CCSCC6)o5)cc34)cc2)cc1	827 nM

Compound	XC50
CC(C)(C)c1ccc(OCCCON2C(=N)N=C(N)NC2(C)C)c(C(C)(C)C)c1	3.2 nM
Cc1cc(Nc2cccc(C(F)(F)F)c2)nc(Nc2cccc(C(F)(F)F)c2)n1	644 nM
Cc1nnsc1C(=O)Nc1cccc(-c2ccc(-c3nc4cccc(C)c4[nH]3)s2)c1	1120 nM
O=[N+]([O-])c1cccc(NC(=S)N2CCCN(Cc3ccc(F)cc3F)CC2)c1	831 nM
N=C(N)Nc1nc(-c2ccc(NC(=N)N3CCC[C@H]3CN3CCCC3)cc2)cs1	1110 nM
c1ccc2ncc(CNCCCCCCCCNCc3cnc4ccccc4c3)cc2c1	846 nM
CC1CN(c2ccc3occ(C(=O)Nc4ccc(-c5ccncc5)c(Cl)c4)c3c2)CC(C)N1C (stereo unspecified)	855 nM
O=C(/C=C/c1ccc(Cl)c(Cl)c1)NCCCCCN1CCC(CCNC(=O)c2snnc2-c2ccccc2)CC1	822 nM
O=C(Nc1ccc([N+](=O)[O-])cc1O)Nc1ccccc1Oc1ccccc1	925 nM
O=C(NCC1CCC(C(=O)O)CC1)c1ccc(/C=C/C(=O)N2CCc3ccccc3C2c2ccc3c(c2)OCO3)cc1 (stereo unspecified)	892 nM
O=C(Nc1ccc(F)cc1F)NC1CCN(CCCCCNC(=O)C2CC2c2ccc(Cl)c(Cl)c2)CC1 (stereo unspecified)	496 nM
COc1cc(NC(=O)/C=C/c2cc(F)cc(F)c2F)cc(OCCN2CCC(O)(c3ccccc3)CC2)c1	166 nM
FC(F)(F)c1ccc2[nH]c(-c3ccc(-c4ccc(CN5CCN(c6ccncc6)CC5)cc4)cc3)nc2c1	62.4 nM
COc1ccccc1NC(=O)Nc1ccc(-c2ccc(-c3nc4cc(C(F)(F)F)ccc4[nH]3)cc2)cc1	544 nM
COc1ccc2ncc(F)c(CCN3C4CCC3CC(NCc3cc5c(cn3)OCS5)C4)c2n1 (stereo unspecified)	923 nM
N=C(N)NCCN(Cc1ccccc1)c1ccc(Cl)cc1	48 nM
N#Cc1ccc2c(c1)CCN(CCC1CCC(NC(=O)c3cccc(-c4ccc(F)cc4)c3)CC1)CC2 (stereo unspecified)	822 nM
CS(=O)(=O)Cc1ccc(Nc2ncc(Cl)c(Nc3cccnc3C(N)=O)n2)cc1	868 nM
O=C(NCC1CCC(C(=O)NC2CCCc3ccccc32)CC1)c1ccc(O)c(-c2ccc(Cl)c(Cl)c2)c1 (stereo unspecified)	1020 nM
N#Cc1ccc2c(c1)CCN(CCC1CCC(NC(=O)c3cc4cccc(Cl)c4[nH]3)CC1)CC2 (stereo unspecified)	576 nM
Cc1noc(C)c1-c1cccc(CNCc2ccc(-c3ccc(-c4nc5cc(C(F)(F)F)ccc5[nH]4)s3)cc2)c1	181 nM
Nc1nccc2ccc(-c3ccnc(NCc4cccnc4)n3)cc12	462 nM
c1ccc(CN2CCC(NCc3ccc(-c4cncc5ccccc45)cc3)CC2)cc1	877 nM
CC1CN(c2ccnc3ccc(Sc4ccc(Oc5ccccc5)cc4)cc23)CC(C)N1 (stereo unspecified)	785 nM

Compound	XC50
Cc1cc(=NN=Cc2ccccc2F)c2cc(C(F)(F)F)ccc2[nH]1	433 nM
CCOC(=O)c1c(NC(=O)c2ccccc2)sc2c(O)c(CNC3CCCCC3)ccc12	752 nM
Cc1[nH]c(C)c(-c2ccc(Oc3ccc(Cl)cc3)cc2)c(=O)c1C	385 nM
CN1CCCC(CN2CCN(Cc3ccc(-c4ccc(-c5nc6cc(F)ccc6[nH]5)cc4)cc3)CC2)C1 (stereo unspecified)	117 nM
COc1cccc(C2=CC(C)(C)Oc3cc(OCCN(C)C)ccc32)c1	794 nM
Cc1c2ccncc2c(C)c2c1[nH]c1cc(Cc3ccccc3)c(O)cc12	148 nM
CC1C(c2cccc(Cl)c2)OCC(C)(C)N1C(=O)CCN1CCCCC1 (stereo unspecified)	923 nM
O=C(c1cc(C(=O)Nc2ccccc2F)c(=O)n(-c2ccccc2F)c1)c1cc(Cl)ccc1O	705 nM
Clc1ccc(Nc2nc(-c3ccccn3)cs2)nc1	774 nM
O=C(Nc1ccccc1)N(Cc1ccc(-c2ccc(CNC3CCCC3)cc2)cc1)C1CCN(Cc2ccccc2)CC1	408 nM
CCCCN(CCCC)C(=O)CC(O)c1cc2c(Cl)cc(Cl)cc2c2cc(C(F)(F)F)ccc12 (stereo unspecified)	1210 nM
COc1ccc(Nc2ncc3c(-c4cccc(NC(=O)Cc5ccncc5)c4)c[nH]c3n2)cc1OC	1230 nM
COc1cccc(C(=O)Nc2sc3c(c2C(N)=O)CCCC3)c1OC	932 nM
N#Cc1cc(C(=O)Nc2ccccc2)c(N)nc1SCC(=O)NC(c1ccccc1)c1cccs1 (stereo unspecified)	605 nM
Cc1cccc(NC(=O)Nc2cccc(-c3ccc(-c4nc5cc(C(F)(F)F)ccc5[nH]4)cc3)c2)c1	905 nM
FC(F)(F)c1ccc2[nH]c(-c3ccc(-c4ccc(CNCC5CCCO5)cc4)s3)nc2c1 (stereo unspecified)	158 nM
O=C(/C=C/c1ccc(Cl)c(Cl)c1)NCCCCCN1CCCN(C(=O)Nc2ccc(Br)cc2)CC1	777 nM
Nc1ccc(-c2nc3cc(Cc4ccc5[nH]c(-c6ccc(N)cc6)nc5c4)ccc3[nH]2)cc1	512 nM
Cc1cccc2nc(-c3ccc(-c4ccc(CNC(C)C)cc4)cc3)[nH]c12	676 nM
Cc1c[nH]c2ccc(/C=C/C(=O)NC3CCC(CCN4CCc5ccc(C#N)cc5CC4)CC3)cc12 (stereo unspecified)	828 nM
CC(C)CC1c2[nH]c3ccccc3c(=O)c2CN1C(=O)OC(C)(C)C (stereo unspecified)	221 nM
CC(=O)Nc1ccc2[nH]cc(C3CCN(CC4CCC(NC(=O)/C=C/c5ccccc5Cl)CC4)CC3)c2n1 (stereo unspecified)	364 nM
CCCC[C@H](NC(=O)OC(C)(C)C)C(=O)Nc1ccc(Cc2ccc(NC(=O)[C@H](CCCC)NC(=O)OC(C)(C)C)cc2)cc1	733 nM
O=C(Nc1ccc(-c2cccc(-c3nc4cc(C(F)(F)F)ccc4[nH]3)c2)cc1)c1csnn1	802 nM

Compound	XC50
O=C(N[C@@H](Cc1ccccc1)C(=O)NCCN1CCCCC1)c1ccc(O)c(-c2cccc(C(F)(F)F)c2)c1	850 nM
CN1CCC(NCCS(=O)(=O)c2cccc(Nc3ccc(-c4cccc(F)c4)cn3)c2)CC1	1360 nM
CNc1nc(Nc2ccccc2C)nc2ccccc12	443 nM
CCCc1cccc(OC)c1OCCCON1C(N)=NC(N)=NC1(C)C	3.2 nM
CS(=O)(=O)CCNc1cc(N2CCc3ncnc(Nc4ccc(OCc5cccc(F)c5)c(Cl)c4)c3C2)ncn1	873 nM
CN(Cc1ccccc1)C(=O)c1nn(CCCN2CCC(N3CCCC3)CC2)cc1-c1ccc(Cl)c(Cl)c1	767 nM
O=C(Nc1ccc(-c2cccc(-c3nc4ccccc4[nH]3)c2)cc1)NC1CC1c1ccccc1 (stereo unspecified)	630 nM
CC(C)(C)c1cc(NC(=O)c2ccc(Cl)c([N+](=O)[O-])c2)cc(C(C)(C)C)c1	1030 nM
CN1CCN(c2ccnc3ccc(NC(=O)Nc4c(Cl)cccc4Cl)cc23)CC1	877 nM
CN1CCN(c2nsc3ccc(-c4ccc(NC(=O)Nc5cc(C(F)(F)F)ccc5F)cc4)cc23)CC1	245 nM
CC(=O)Nc1cccc(C(=O)Nc2cccc(-c3csc(-c4nc5ccccc5[nH]4)c3)c2)c1	181 nM
Cc1nc(C)c(-c2ccc(C(=O)c3ccc(Cl)cc3)cc2)c(O)c1Br	810 nM
O=C(CNc1ccc(Cl)c(S(=O)(=O)N2CCCC2)c1)Nc1ccc(Br)cc1F	321 nM
CC(C)CNCc1cccc(-c2ccccc2CNC2CCN(Cc3ccccc3)CC2)c1	579 nM
CC(C)(C)C(=O)Nc1ccc(C(=O)Nc2cccc(-c3nc4ccccc4[nH]3)c2)cc1	282 nM
CC(C)CCN1CCCN(Cc2ccc(C(=O)Nc3ccc(Cl)cc3)cc2)CC1	796 nM
COc1cccc(C=CC(=O)NC2CCC(CN3CCC(c4c[nH]c5ccccc45)CC3)CC2)c1OC (stereo unspecified)	740 nM
O=C(/C=C/c1ccc(Cl)c(Cl)c1)N1CCCC(CCCN2CCC(c3c[nH]c4ccccc34)CC2)C1 (stereo unspecified)	1090 nM
Cc1cc(NC(=O)NCCN2CCC(NS(=O)(=O)c3ccccc3F)CC2)c2ccccc2n1	949 nM
CN1CCN(CCCCCNc2c3ccccc3nc3ccccc23)CC1	741 nM
CCCCCN1C(=O)N(c2ccc(Cl)c(Cl)c2)C(N(O)C(=O)Nc2ccc(Cl)c(Cl)c2)C1(C)C (stereo unspecified)	545 nM
CCCN(Cc1nnc(-c2cccs2)o1)C(=O)CSc1nnnn1-c1cc(C)cc(C)c1	500 nM
Oc1cccc(-c2nc3cc(C4=NC5CCCCC5N4)ccc3[nH]2)c1 (stereo unspecified)	592 nM
Cn1nc(C(F)(F)F)c(-c2ccc(Br)cc2)c1NC(=O)Cc1ccccc1F	157 nM
